Source: ChEMBL document CHEMBL1201862, “PubChem BioAssay data set” (2004)
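These data come from cells grown in 96-well plates and exposed to compound for 48 hours at five concentrations. GI50: concentration for 50% inhibition of growth.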 Activity calls are given as the source filed them. Cut-off read from the data, not from the text of the source: active = GI50 up to about 1.1 µM and inactive = higher.

Assays:
Assay in all cases: inhibition of tumour cell growth, NCI panel, 48 h
A498 = test system: A498
A549 = test system: A549
CAKI-1 = test system: CAKI-1
CCRF-CEM = test system: CCRF-CEM
COLO 205 = test system: COLO 205
DLD-1 = test system: DLD-1
DMS-114 = test system: DMS-114
DMS-273 = test system: DMS-273
EKVX = test system: EKVX
HCC 2998 = test system: HCC 2998
HCT-116 = test system: HCT-116
HCT-15 = test system: HCT-15
HL-60 = test system: HL-60
HOP-18 = test system: HOP-18
HOP-62 = test system: HOP-62
HOP-92 = test system: HOP-92
HT-29 = test system: HT-29
IGROV-1 = test system: IGROV-1
K562 = test system: K562
KM-20L2 = test system: KM-20L2
KM12 = test system: KM12
LOX IMVI = test system: LOX IMVI
M19-MEL = test system: M19-MEL
MCF7 = test system: MCF7
MOLT-4 = test system: MOLT-4
Malme-3M = test system: Malme-3M
NCI-H226 = test system: NCI-H226
NCI-H23 = test system: NCI-H23
NCI-H460 = test system: NCI-H460
NCI-H522 = test system: NCI-H522
NCI/ADR-RES = test system: NCI/ADR-RES
OVCAR-3 = test system: OVCAR-3
OVCAR-4 = test system: OVCAR-4
OVCAR-5 = test system: OVCAR-5
OVCAR-8 = test system: OVCAR-8
RPMI-8226 = test system: RPMI-8226
RXF 393 = test system: RXF 393
SF-268 = test system: SF-268
SF-295 = test system: SF-295
SF-539 = test system: SF-539
SK-MEL-28 = test system: SK-MEL-28
SK-MEL-2 = test system: SK-MEL-2
SK-MEL-5 = test system: SK-MEL-5
SK-OV-3 = test system: SK-OV-3
SN12C = test system: SN12C
SNB-19 = test system: SNB-19
SNB-75 = test system: SNB-75
SNB-78 = test system: SNB-78
SW-620 = test system: SW-620
U-251 = test system: U-251
UACC-257 = test system: UACC-257
UACC-62 = test system: UACC-62
UO-31 = test system: UO-31
XF498 = test system: XF498
786-0 = test system: 786-0
ACHN = test system: ACHN
LXFL 529 = test system: LXFL 529
M14 = test system: M14
SR = test system: SR
TK-10 = test system: TK-10

Measured: GI50

CN(C)C(CN)CC1=C(CC(CN)N(C)C)CCC1 (stereo not drawn)
inactive: A498 > 100 µM | A549 > 100 µM | CAKI-1 > 100 µM | CCRF-CEM > 100 µM | COLO 205 > 100 µM | DLD-1 > 100 µM | DMS-114 > 100 µM | DMS-273 > 100 µM | EKVX > 100 µM | HCC 2998 > 100 µM | HCT-116 > 100 µM | HL-60 > 100 µM | HOP-18 > 100 µM | HOP-62 > 100 µM | HOP-92 > 100 µM | HT-29 > 100 µM | IGROV-1 > 100 µM | K562 > 100 µM | KM-20L2 > 100 µM | KM12 > 100 µM | LOX IMVI > 100 µM | M19-MEL > 100 µM | MCF7 > 100 µM | MOLT-4 > 100 µM | Malme-3M > 100 µM | NCI-H226 > 100 µM | NCI-H23 > 100 µM | NCI-H460 > 100 µM | NCI-H522 > 100 µM | NCI/ADR-RES > 100 µM | OVCAR-3 > 100 µM | OVCAR-4 > 100 µM | OVCAR-5 > 100 µM | OVCAR-8 > 100 µM | RPMI-8226 > 100 µM | RXF 393 > 100 µM | SF-268 > 100 µM | SF-295 > 100 µM | SF-539 > 100 µM | SK-MEL-28 > 100 µM | SK-MEL-2 > 100 µM | SK-MEL-5 > 100 µM | SK-OV-3 > 100 µM | SN12C > 100 µM | SNB-19 > 100 µM | SNB-75 > 100 µM | SNB-78 > 100 µM | SW-620 > 100 µM | U-251 > 100 µM | UACC-257 > 100 µM | UACC-62 > 100 µM | UO-31 > 100 µM | XF498 > 100 µM
> 100 µM: HCT-15

CCOC(=O)/C(O)=C1\C(=O)N(C)C(=O)C1c1ccc(OC)c(OC)c1 (stereo not drawn)
inactive: A498 > 100 µM | A549 > 100 µM | CAKI-1 > 100 µM | CCRF-CEM > 100 µM | COLO 205 > 100 µM | DLD-1 > 100 µM | DMS-114 > 100 µM | DMS-273 > 100 µM | EKVX > 100 µM | HCC 2998 > 100 µM | HCT-116 > 100 µM | HL-60 > 100 µM | HOP-18 > 100 µM | HOP-62 > 100 µM | HOP-92 > 100 µM | HT-29 > 100 µM | IGROV-1 > 100 µM | K562 > 100 µM | KM-20L2 > 100 µM | KM12 > 100 µM | LOX IMVI > 100 µM | M19-MEL > 100 µM | MCF7 > 100 µM | MOLT-4 > 100 µM | Malme-3M > 100 µM | NCI-H226 > 100 µM | NCI-H23 > 100 µM | NCI-H460 > 100 µM | NCI-H522 > 100 µM | NCI/ADR-RES > 100 µM | OVCAR-3 > 100 µM | OVCAR-4 > 100 µM | OVCAR-5 > 100 µM | OVCAR-8 > 100 µM | RPMI-8226 > 100 µM | RXF 393 > 100 µM | SF-268 > 100 µM | SF-295 > 100 µM | SF-539 > 100 µM | SK-MEL-28 > 100 µM | SK-MEL-2 > 100 µM | SK-MEL-5 > 100 µM | SK-OV-3 > 100 µM | SN12C > 100 µM | SNB-19 > 100 µM | SNB-75 > 100 µM | SNB-78 > 100 µM | SW-620 > 31.6 µM | U-251 > 100 µM | UACC-257 > 100 µM | UACC-62 > 100 µM | UO-31 > 100 µM | XF498 > 100 µM
> 100 µM: HCT-15

CC1CCC2CC(=O)OC([C@@H]3C(=O)O[C@@H](C4=CCCC4)C4C(C)CCC43)C12 (stereo partly drawn)
48.2 µM: HCT-15
inactive: 786-0 > 100 µM | A549 > 100 µM | ACHN 61.4 µM | CAKI-1 72.6 µM | CCRF-CEM 34.8 µM | COLO 205 32.4 µM | DLD-1 84.5 µM | DMS-114 27.7 µM | DMS-273 > 100 µM | EKVX > 100 µM | HCC 2998 > 100 µM | HCT-116 43.9 µM | HL-60 23.1 µM | HOP-18 > 100 µM | HOP-62 > 100 µM | HT-29 61 µM | IGROV-1 80.2 µM | K562 43.7 µM | KM-20L2 92.3 µM | KM12 42 µM | LOX IMVI > 100 µM | LXFL 529 47.4 µM | M14 > 100 µM | M19-MEL > 100 µM | MOLT-4 36.2 µM | Malme-3M > 100 µM | NCI-H226 > 100 µM | NCI-H23 > 100 µM | NCI-H460 58.1 µM | NCI-H522 51.3 µM | OVCAR-3 73.1 µM | OVCAR-4 > 10 µM | OVCAR-8 68.5 µM | RPMI-8226 37.2 µM | RXF 393 > 100 µM | SF-268 > 100 µM | SF-295 79.1 µM | SF-539 > 100 µM | SK-MEL-28 > 100 µM | SK-MEL-2 > 100 µM | SK-MEL-5 97.7 µM | SK-OV-3 > 100 µM | SN12C > 100 µM | SNB-19 > 100 µM | SNB-75 > 100 µM | SNB-78 > 100 µM | SR 39 µM | SW-620 70 µM | TK-10 54.5 µM | U-251 48.6 µM | UACC-257 > 100 µM | UACC-62 > 100 µM | UO-31 > 100 µM | XF498 > 100 µM
